# Where “and” joins values, the source holds several entries; their conditions need not be identical. Equal values may be shown once.
# Experiments:
# [1] = system: PSMA expressing LS174T cells; assay: Internalization and cell uptake assay; format: cell-based, human; details: 2 h 37 °C
# Method: LS174T human colon carcinoma cells transfected with human PSMA were obtained from Dr. Sandra Heskamp (Radboud UMC, Nijmegen). Cells were cultured in RPMI-1640 media supplemented with 2 mM glutamine, 10% fetal bovine serum (FBS) and 0.3 mg/mL G418 (Geneticin, Sigma Aldrich, St. Louis, MO, USA).
# Cells were seeded (1.2 × 10^6 cells/well) and cultured to confluency for 24 h prior to experiments. We prepared 10^−9 M solutions of [^111In]In-PSMA-617, [^111In]In-22, and [^111In]In-30 in internalization media (RPMI, 20 mM HEPES, 1% BSA, pH 7.4). The media were removed from each well, and they were rinsed twice with PBS at rt. 2 mL of the radioactive compound was then added to each well and incubated at 37 °C for 2 h. For the internalization assay, the media containing radioactive compound were removed, and each well was washed twice with cold PBS. A total of 1 mL of Glycine buffer (50 mM glycine, 100 mM NaCl, pH 2.8) was added immediately and incubated for 10 min at rt. The glycine wash was then collected into counting tubes (membrane-bound fraction). An extra wash was performed and collected in the same tubes. A total of 1 mL of NaOH (1 M) was then added to each tube and left for 15 min at rt. The lysate (internalized fraction) was then collected in separate counting tubes, together with one extra NaOH wash. Data were normalized to 1,000,000 cells and percentage added dose.
# [2] = LogD7.4 by shake-flask method (PBS/n-octanol); format: physicochemical; details: LogD7.4, PBS pH 7.4/n-octanol, indium-111 labeled compound
# Method: The distribution coefficients (LogD7.4 values) were determined by a shake-flask method, in which 2 μL (~0.5 MBq) of the labeling solution ([^111In]In-22 or [^111In]In-30) were added to an Eppendorf tube containing 1 mL of PBS (0.01 M, pH 7.4)/n-octanol (v/v, 1:1). After vigorous vortexing, the solution was centrifuged at 2500× g for 15 min for phase separation. Samples (3 × 10 μL) of the two phases were taken out and measured in a gamma counter. LogD7.4 values were calculated by using the following equation: LogD7.4 = log [(counts in octanol phase)/(counts in aqueous phase)] and the experiment was performed in triplicate.
# [3] = system: BALB/c nude mice bearing LS174T PSMA-positive tumor xenografts; assay: Ex vivo biodistribution studies; format: in vivo
# Method: Animal experiments were performed in 8–10 weeks old male BALB/c nude mice (Janvier Labs, Le Genest-Saint-Isle, France). Animals were housed in individually ventilated cages (Blue line IVC, 4 mice per cage) under nonsterile standard conditions with cage enrichment present and free access to chlorophyll-free animal chow (Sniff GmbH, Soest, Germany) and water and acclimated for 1 week before experiments. Mice were subcutaneously inoculated with 4.0 × 10^6 LS174T cells in the right flank, diluted in 100 μL of cell suspension. Seven days after tumor cell inoculation, when xenografts were approximately 0.2–0.3 cm^3, the tracers were injected intravenously via the tail vein. All experiments were approved by the institutional Animal Welfare Committee and were conducted in accordance with the guidelines of the Revised Dutch Act on Animal Experimentation (WOD).
# Mice were intravenously injected with ~1 nmol of either [^111In]In-PSMA-617, [^111In]In-22 or [^111In]In-30 with molar activity of 5 MBq/nmol for ex vivo biodistribution studies. Mice (n = 4/timepoint) were euthanized by cervical dislocation at 1, 4, and 24 h p.i. A block group was included, and mice were euthanized at 4 h p.i. Organs were collected in tubes and counted in the gamma counter, where the calibration factor was determined by measuring different known activities of indium-111.
# [4] = Stability in phosphate-buffered saline (PBS), radio-HPLC; format: physicochemical; details: 24 h post-incubation, 37 °C, indium-111 labeled, intact fraction
# Method: [^111In]In-22 or [^111In]In-30 (~10 MBq, 20 µL) was mixed with 80 μL of PBS (0.01 M, pH 7.4) and incubated at 37 °C for up to 24 h. A sample of the PBS solution was loaded directly onto the radio-HPLC at 1, 4, and 24 h post-incubation.
# [5] = Stability in mouse serum, radio-HPLC; format: in vitro ADME; details: 24 h post-incubation, 37 °C, indium-111 labeled, intact fraction
# Method: [^111In]In-22 or [^111In]In-30 (~35 MBq, 70 µL) was mixed with 330 μL of mouse serum and incubated at 37 °C for up to 24 h. After 1, 4, and 24 h incubation, 50 μL of the mouse serum solution was added to a separate vial containing 50 µL of acetonitrile. The sample was centrifuged at 5000× g for 20 min. The supernatant was analyzed by radio-HPLC.
# [6] = set-up: method as in PMID 33495926; details: co-administration of maximum dose of 2000 pmoles PSMA-11; cited from earlier work
# [7] = 4 h p.i. block group (excess unlabeled PSMA ligand)
smiles,measurement,setting,value
CC(C)CC(NC(=O)C(Cc1ccccc1)NC(=O)C(CC(=O)O)NC(=O)CCCCCSC1=NNC(SCCCCCC(=O)NC(CC(=O)O)C(=O)NC(Cc2ccccc2)C(=O)NC(CC(C)C)C(O)CC(=O)NCCCCCC(=O)NCCCCC(NC(=O)NC(CCC(=O)O)C(=O)O)C(=O)O)=C2CCC(OC(=O)NCCCNC(=O)CN3CCN(CC(=O)[O-])CCN(CC(=O)[O-])CCN(CC(=O)[O-])CC3)CCCC12)C(O)CC(=O)NCCCCCC(=O)NCCCCC(NC(=O)NC(CCC(=O)O)C(=O)O)C(=O)O.[111In+3] (stereo not drawn) [[^111In]In-30],Internalized fraction,"[1]; 10^-9 M, NaOH lysate",3.51 ± 0.68 % AD
same,Membrane-bound uptake,"[1]; 10^-9 M, glycine wash",0.26 ± 0.09 % AD
same,Total uptake,"[1]; 10^-9 M, normalized to 1,000,000 cells",3.79 ± 0.74 % AD
same,Internalized fraction as share of total uptake (internalization),[1],92% and 92.6%
same,Membrane-bound uptake as share of total uptake,[1],7.4%
same,logD,[2],−2.44 ± 0.07
same,Blood uptake,"[3]; 1 h p.i., i.v. ~1 nmol",4.84 ± 1.44 % ID/g
same,Bone uptake,"[3]; 1 h p.i., i.v. ~1 nmol",3.00 ± 0.53 % ID/g
same,Heart uptake,"[3]; 1 h p.i., i.v. ~1 nmol",2.58 ± 0.79 % ID/g
same,Intestines uptake,"[3]; 1 h p.i., i.v. ~1 nmol",0.87 ± 0.08 % ID/g
same,Kidney uptake,"[3]; 1 h p.i., i.v. ~1 nmol",138.54 ± 1.44 % ID/g
same,Liver uptake,"[3]; 1 h p.i., i.v. ~1 nmol",3.94 ± 0.26 % ID/g
same,Lung uptake,"[3]; 1 h p.i., i.v. ~1 nmol",2.81 ± 0.36 % ID/g
same,Muscle uptake,"[3]; 1 h p.i., i.v. ~1 nmol",1.13 ± 0.22 % ID/g
same,Pancreas uptake,"[3]; 1 h p.i., i.v. ~1 nmol",1.47 ± 0.33 % ID/g
same,Prostate uptake,"[3]; 1 h p.i., i.v. ~1 nmol",3.53 ± 2.05 % ID/g
same,Skin uptake,"[3]; 1 h p.i., i.v. ~1 nmol",4.44 ± 1.06 % ID/g
same,Spleen uptake,"[3]; 1 h p.i., i.v. ~1 nmol",3.30 ± 0.59 % ID/g
same,Stomach uptake,"[3]; 1 h p.i., i.v. ~1 nmol",0.47 ± 0.34 % ID/g
same,Tumor uptake,"[3]; 1 h p.i., i.v. ~1 nmol",4.95 ± 1.01 % ID/g
same,Blood uptake,[3]; [7],0.78 ± 0.04 % ID/g
same,Bone uptake,[3]; [7],1.27 ± 0.23 % ID/g
same,Heart uptake,[3]; [7],0.82 ± 0.10 % ID/g
same,Intestines uptake,[3]; [7],0.48 ± 0.03 % ID/g
same,Kidney uptake,[3]; [7],120.93 ± 4.75 % ID/g
same,Liver uptake,[3]; [7],1.84 ± 0.07 % ID/g
same,Lung uptake,[3]; [7],0.84 ± 0.07 % ID/g
same,Muscle uptake,[3]; [7],0.47 ± 0.08 % ID/g
same,Pancreas uptake,[3]; [7],0.54 ± 0.07 % ID/g
same,Prostate uptake,[3]; [7],0.94 ± 0.30 % ID/g
same,Skin uptake,[3]; [7],1.42 ± 0.18 % ID/g
same,Spleen uptake,[3]; [7],1.20 ± 0.14 % ID/g
same,Stomach uptake,[3]; [7],0.33 ± 0.12 % ID/g
same,Tumor uptake,[3]; [7],1.42 ± 0.14 % ID/g
same,Blood uptake,"[3]; 4 h p.i., i.v. ~1 nmol",1.02 ± 0.29 % ID/g
same,Bone uptake,"[3]; 4 h p.i., i.v. ~1 nmol",1.44 ± 0.54 % ID/g
same,Heart uptake,"[3]; 4 h p.i., i.v. ~1 nmol",0.96 ± 0.22 % ID/g
same,Intestines uptake,"[3]; 4 h p.i., i.v. ~1 nmol",0.92 ± 0.58 % ID/g
same,Kidney uptake,"[3]; 4 h p.i., i.v. ~1 nmol",132.89 ± 11.12 % ID/g
same,Liver uptake,"[3]; 4 h p.i., i.v. ~1 nmol",2.41 ± 0.35 % ID/g
same,Lung uptake,"[3]; 4 h p.i., i.v. ~1 nmol",0.77 ± 0.52 % ID/g
same,Muscle uptake,"[3]; 4 h p.i., i.v. ~1 nmol",0.64 ± 0.30 % ID/g
same,Pancreas uptake,"[3]; 4 h p.i., i.v. ~1 nmol",0.66 ± 0.24 % ID/g
same,Prostate uptake,"[3]; 4 h p.i., i.v. ~1 nmol",1.27 ± 0.69 % ID/g
same,Skin uptake,"[3]; 4 h p.i., i.v. ~1 nmol",1.92 ± 0.49 % ID/g
same,Spleen uptake,"[3]; 4 h p.i., i.v. ~1 nmol",1.40 ± 0.20 % ID/g
same,Stomach uptake,"[3]; 4 h p.i., i.v. ~1 nmol",0.31 ± 0.08 % ID/g
same,Tumor uptake,"[3]; 4 h p.i., i.v. ~1 nmol",2.94 ± 0.36 % ID/g
same,Tumor-to-muscle (T/M) ratio,[3]; 24 h p.i.,15
same,Blood uptake,"[3]; 24 h p.i., i.v. ~1 nmol",0.09 ± 0.01 % ID/g
same,Bone uptake,"[3]; 24 h p.i., i.v. ~1 nmol",0.60 ± 0.04 % ID/g
same,Heart uptake,"[3]; 24 h p.i., i.v. ~1 nmol",0.21 ± 0.01 % ID/g
same,Intestines uptake,"[3]; 24 h p.i., i.v. ~1 nmol",0.19 ± 0.06 % ID/g
same,Kidney uptake,"[3]; 24 h p.i., i.v. ~1 nmol",26.86 ± 2.37 % ID/g
same,Liver uptake,"[3]; 24 h p.i., i.v. ~1 nmol",0.80 ± 0.04 % ID/g
same,Lung uptake,"[3]; 24 h p.i., i.v. ~1 nmol",0.28 ± 0.03 % ID/g
same,Muscle uptake,"[3]; 24 h p.i., i.v. ~1 nmol",0.15 ± 0.03 % ID/g
same,Pancreas uptake,"[3]; 24 h p.i., i.v. ~1 nmol",0.17 ± 0.00 % ID/g
same,Prostate uptake,"[3]; 24 h p.i., i.v. ~1 nmol",0.40 ± 0.10 % ID/g
same,Skin uptake,"[3]; 24 h p.i., i.v. ~1 nmol",0.77 ± 0.13 % ID/g
same,Spleen uptake,"[3]; 24 h p.i., i.v. ~1 nmol",0.58 ± 0.04 % ID/g
same,Stomach uptake,"[3]; 24 h p.i., i.v. ~1 nmol",0.11 ± 0.07 % ID/g
same,Tumor uptake,"[3]; 24 h p.i., i.v. ~1 nmol",1.57 ± 0.17 % ID/g
same,Tumor-to-muscle (T/M) ratio,[3]; at 1 and 4 h p.i.,4–5
same,Stability in PBS (%),[4],90.8%
same,Stability in Mouse Serum (%),[5],90.1%
O=C(O)CCc1ccc(O)c(CN(CCN(CC(=O)O)Cc2cc(CCC(=O)NCCCCCC(=O)NCCCC[C@H](NC(=O)N[C@@H](CCC(=O)O)C(=O)O)C(=O)O)ccc2O)CC(=O)O)c1 [PSMA-11],Decrease in kidney uptake of [177Lu]Lu-PSMA,[6],99.5%
same,Decrease in salivary gland uptake of [177Lu]Lu-PSMA,[6],89.5%
same,Decrease in tumor-uptake of [177Lu]Lu-PSMA,[6],44.5%

# Reference: paper PMC10223019, “Preclinical Evaluation of a PSMA-Targeting Homodimer with an Optimized Linker for Imaging of Prostate Cancer” (Molecules, 2023)
